Laboratory results taken from patent US10647680B2, “Urea compound, preparation method therefor and medical use thereof” (Ancureall Pharmaceutical (Shanghai) Co., Ltd., priority 2016, dated 2020).

How the values were obtained:
[1] = system: OCI-AML3 (NPMc+ mutant type); test: In vitro growth inhibition (GI50), OCI-AML3; assay type: cell-based; settings: Homo sapiens, OCI-AML-3; Cell lines of leukemia; read-out: GI 50 OCI- AML3 NPMc+
[2] = system: Kasumi-1 (c-Kit N822K mutant type); test: In vitro growth inhibition (GI50), Kasumi-1; assay type: cell-based; settings: Homo sapiens, Cell lines of leukemia, read-out: GI 50 Kasumi-1 Kit (N822K)
Outline: (§1)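 Cells in RPMI1640 with 10% FBS, seeded at 5–10×10^4 cells/mL, exposed next day to compound at 5,000 nM down to 0.01 nM (2- or 10-fold dilutions, ≤1% solvent) for 3–5 days at 37 °C. CCK8 absorbance at 450 nm, growth rate relative to pre-treatment and solvent controls, GI50 from concentration–growth curve.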

[3] = system: RAMOS (positive expression of Brutons tyrosine protein kinase); test: In vitro growth inhibition (GI50), RAMOS; assay type: cell-based; settings: Homo sapiens, Cell lines of leukemia, read-out: GI 50 Ramos BTK
[4] = system: MV4-11 (FLT3 ITD+/+ mutant type); test: In vitro growth inhibition (GI50), MV4-11; assay type: cell-based, human; settings: Homo sapiens, MV4-11; Cell lines of leukemia; read-out: GI 50 MV4-11 FLT3 (ITD +/+)
[5] = system: MOLM-13 (FLT3 ITD+/− mutant type); test: In vitro growth inhibition (GI50), MOLM-13; assay type: cell-based, human; settings: Homo sapiens, MOLM-13; Cell lines of leukemia; read-out: GI 50 MOLM-13 FLT3 (ITD+/−)
RS4; 11 (FLT3 wild type) = test: In vitro growth inhibition (GI50), RS4; 11; assay type: cell-based, human; settings: Homo sapiens, RS4-11; Cell lines of leukemia; read-out: GI 50 RS4: 11 FLT3 (WT)
[6] = system: K562 (FLT3 negative expression, positive expression of BCR-ABL fusion protein); test: In vitro growth inhibition (GI50), K562; assay type: cell-based; settings: Homo sapiens, Cell lines of leukemia, read-out: GI 50 K562 BCR-ABL
HL-60 (FLT3 wild type) = test: In vitro growth inhibition (GI50), HL-60; assay type: cell-based; settings: Homo sapiens, Cell lines of leukemia, read-out: GI 50 HL60 FLT3 (WT)
Outline: as §1

[7] = system: KG-1 (expressing FGFR1OP2-FGFR1 fusion protein); test: In vitro growth inhibition (GI50), KG-1; assay type: cell-based; settings: Homo sapiens; Cell lines of leukemia; read-out: GI 50 KG-1 FGFR1OP 2-FGFR1
U937 (FLT3 wild-type) = test: In vitro growth inhibition (GI50), U937; assay type: cell-based; settings: Homo sapiens, U-937; Cell lines of leukemia; read-out: GI 50 U937 FLT 3(WT)

Measured: GI50

CN(C)c1ncnc2ncn(-c3ccc(NC(=O)Nc4cc(C(C)(C)C)on4)cc3)c12 [Compound 59, 1-(5-tert-butyl-isoxazol-3-yl)-3-[4-(6-dimethylamino-purin-7-yl)-phenyl]-urea]
1 to 10 nM: [4] | [5]
100 to 1000 nM: RS4; 11 (FLT3 wild type) | [6] | [7]
> 1000 nM: all other assays above

CC(C)(C)c1cc(N)n(C(=O)Nc2ccc(-n3cnc4cc(C(F)(F)F)ccc43)cc2)n1 [Compound 126, 5-amino-3-tert-butyl-pyrazol-1-carboxylic acid [4-(5-trifluoromethyl-benzimidazol-1-yl)-phenyl]-amide]
10 to 100 nM: [4] | [5]
> 1000 nM: all other assays above

CC(C)(C)c1cc(NC(=O)Nc2ccc(-n3cnc4cc(C(F)(F)F)ccc43)cc2)[nH]n1 [Compound 70, 1-(5-tert-butyl-2H-pyrazol-3-yl)-3-[4-(5-trifluoromethyl-benzimidazol-1-yl)-phenyl]-urea]
1 to 10 nM: [4] | [5]
> 1000 nM: all other assays above

CC(C)(C)c1cc(NC(=O)Nc2cc(F)c(-n3cnc4ccccc43)c(F)c2)no1 [Compound 40, 1-(4-benzimidazol-1-yl-3,5-difluoro-phenyl)-3-(5-tert-butyl-isoxazol-3-yl)-urea]
100 to 1000 nM: [4] | [5]
> 1000 nM: all other assays above

CC(C)(C)c1cc(NC(=O)Nc2ccc(-n3cnc4ccccc43)cc2)n(-c2ccc(OC(F)(F)F)cc2)n1 [Compound 107, 1-(4-benzimidazol-1-yl-phenyl)-3-[5-tert-butyl-2-(4-trifluoromethoxy-phenyl)-2H-pyrazol-3-yl]-urea]
10 to 100 nM: [4] | [5]
> 1000 nM: all other assays above

CC(C)(C)c1cc(NC(=O)Nc2ccc(-n3ncc4cccc(F)c43)cc2)no1 [Compound 47, 1-(5-tert-butyl-isoxazol-3-yl)-3-[4-(7-fluoro-indazol-1-yl)-phenyl]-urea]
100 to 1000 nM: [4] | [5]
> 1000 nM: all other assays above

Cc1cc(NC(=O)Nc2cc(C(C)(C)C)on2)ccc1-n1cnc2ccccc21 [Compound 37, 1-(4-benzimidazol-1-yl-3-methyl-phenyl)-3-(5-tert-butyl-isoxazol-3-yl)-urea]
100 to 1000 nM: [4] | [5]
> 1000 nM: all other assays above

Nc1cc(C(F)(F)F)nn1C(=O)Nc1ccc(-n2cnc3ccccc32)cc1 [Compound 115, 5-amino-3-trifluoromethylpyrazol-1-carboxylic acid (4-benzimidazol-1-yl-phenyl)-amide]
100 to 1000 nM: [1] | [4] | [5]
> 1000 nM: all other assays above

CC(C)(C)c1cc(N)n(C(=O)Nc2ccc(-n3cnc4cc(F)ccc43)cc2)n1 [Compound 125, 5-amino-3-tert-butyl-pyrazol-1-carboxylic acid [4-(5-fluoro-benzimidazol-1-yl)-phenyl]-amide]
10 to 100 nM: [4] | [5]
> 1000 nM: all other assays above

COc1ccc2c(c1)ncn2-c1ccc(NC(=O)Nc2cc(C(C)(C)C)on2)cc1 [Compound 5, 1-(5-tert-butyl-isoxazol-3-yl)-3-[4-(5-methoxyl-benzimidazol-1-yl)-phenyl]-urea]
0.1 to 1 nM: [4] | [5]
> 1000 nM: all other assays above

CCOCCOc1ccc2c(c1)ncn2-c1ccc(NC(=O)Nc2cc(C(C)(C)C)n[nH]2)cc1 [Compound 78, 1-(5-tert-butyl-2H-pyrazol-3-yl)-3-{4-[5-(2-ethoxyl-ethoxyl)-benzimidazol-1-yl]-phenyl}-urea]
0.1 to 1 nM: [4] | [5]
> 1000 nM: all other assays above

CC(C)(C)c1cc(N)n(C(=O)Nc2ccc(-n3cnc4cc(OCCN5CCOCC5)ccc43)cc2)n1 [Compound 119, 5-amino-3-tert-butyl-pyrazol-1-carboxylic acid {4-[5-(2-morpholin-4-yl-ethoxyl)-benzimidazol-1-yl]-phenyl}-amide]
1 to 10 nM: [4] | [5]
> 1000 nM: all other assays above

CC(C)(C)c1cc(NC(=O)Nc2ccc(-n3cnc4cc(OCC5CCCCO5)ccc43)cc2)[nH]n1 (centres unmarked) [Compound 87, 1-(5-tert-butyl-2H-pyrazol-3-yl)-3-{4-[5-(tetrahydro-pyran-2-ylmethoxy)-benzimidazol-1-yl]-phenyl}-urea]
0.1 to 1 nM: [4] | [5]
> 1000 nM: all other assays above

CC(C)(C)c1cc(NC(=O)Nc2ccc(-n3cnc4cc(OCCN5CCCCC5)ccc43)cc2)no1 [Compound 17, 1-(5-tert-butyl-isoxazol-3-yl)-3-{4-[5-(2-piperidin-1-yl-ethoxyl)-benzimidazol-1-yl]-phenyl}-urea]
0.1 to 1 nM: [4] | [5]
> 1000 nM: [1]
100 to 1000 nM: all other assays above

O=C(Nc1ccc(-n2cnc3ccccc32)cc1)Nc1cc(C(F)(F)F)n[nH]1 [Compound 67, 1-(4-benzimidazol-1-yl-phenyl)-3-(5-trifluoromethyl-2H-pyrazole-3-yl)-urea]
> 1000 nM: [1]
0.1 to 1 nM: [4] | [5]
100 to 1000 nM: all other assays above

Cc1cc2ncn(-c3ccc(NC(=O)Nc4cc(C(C)(C)C)on4)cc3)c2cc1C [Compound 32, 1-(5-tert-butyl-isoxazol-3-yl)-3-[4-(5,6-dimethyl-benzimidazol-1-yl)-phenyl]-urea]
1 to 10 nM: [4] | [5]
> 1000 nM: all other assays above

CC(C)(C)c1cc(NC(=O)Nc2ccc(-n3cnc4cc(F)ccc43)cc2)no1 [Compound 22, 1-(5-tert-butyl-isoxazol-3-yl)-3-[4-(5-fluoro-benzimidazol-1-yl)-phenyl]-urea]
0.1 to 1 nM: [4] | [5]
> 1000 nM: all other assays above
